# Measured values from publication PMC7566913, “Dual Gene Delivery Reagents From Antiproliferative Alkylphospholipids for Combined Antitumor Therapy” (Frontiers in Chemistry, 2020).
# Several values for one entry are separate records, joined by “and”; a condition that tells them apart may be missing. Identical values can stand only once. Like-named read-outs stand apart in the source and are kept apart here.
# Assays:
# [1] = design: method as in Gaillard et al., 2019; details: ref Gaillard et al., 2019, cited from earlier work
# [2] = design: method as in Gaillard et al., 2019; details: pyrene fluorescence; ref Gaillard et al., 2019; cited from earlier work
# [3] = system: A549 cells; design: method as in Gaillard et al., 2019; details: A549, 24 h at 37°C, MTT assay; ref Gaillard et al., 2019; cited from earlier work
# [4] = system: H292 cells; design: method as in Gaillard et al., 2019; details: H292, 24 h at 37°C, MTT assay; ref Gaillard et al., 2019; cited from earlier work
# [5] = system: 16HBE cells; design: method as in Gaillard et al., 2019; details: 24 h at 37°C, MTT assay, ref Gaillard et al., 2019; cited from earlier work
# [6] = design: method as in Gaillard et al., 2019; details: lipoplexes with pCMV-Gluc, N/P 3, 1 molar equivalent of DOPE; ref Gaillard et al., 2019; cited from earlier work
# [7] = system: sheep RBC; details: sheep RBC, 37°C, ref Gaillard et al., 2019, cited from earlier work
# [8] = Hydrolytic stability of the APL prodrugs monitored by 31P-NMR; format: physicochemical
# Source text: Aqueous formulation of the APL prodrugs produces nanosized lipid aggregates that most likely enter cells through the endocytosis pathway. To produce the expected intrinsic antineoplastic effect, APL-derived phosphotriesters need to be processed into the bioactive parent APLs. The hydrolysis of the prodrugs may be under the control of a chemical stimulus, e.g., a pH decrease as observed during the maturation of endosomes, or of degradation enzymes that massively enter the endosome compartment when continuing to lysosomes. To get some information on the transformation of pro-APLs into APLs, we monitored the hydrolysis of these compounds over time, at pH 7.4 and 4.5, conditions that mimick the extracellular milieu and the environment of the late endosome, respectively. This monitoring was realized using ^31P-NMR spectroscopy, according to a previously reported method (Pierrat et al., [2013b]). Whatever the compound investigated, only one single ^31P resonance did appear during the course of the experiments, corresponding to that of the parent APL. This confirmed that hydrolysis of the pro-APLs selectively occurred at the acetal center. […] As a general trend, hydrolysis of the pro-APLs was […] under neutral conditions (i.e., pH 7.4) than under acidic ones (i.e., pH 4.5). […] Besides, substitution of one hydrogen atom with a methyl group on the acetal bridge accelerated the rate of hydrolysis of the prodrugs. […] Indeed, in biological media, the enzyme-mediated hydrolysis of such compounds can proceed far quicker than “simple” chemical hydrolysis under pH control (Pierrat et al., [2012]). […]
# [9] = CMC/CAC by pyrene fluorescent probe technique in ultrapure water; format: physicochemical; details: pyrene fluorescence
# Protocol: The pro-APL molecules have been specifically engineered so they can be metabolized in situ under a biological stimulus to revert to the parent APL with antiproliferative activity. […] We thus aimed to determine the self-assembly properties of the APL prodrugs. […] Pyrene is a probe which fluorescence is sensitive to the polarity of the solubilizing medium. […] Fluorescence measurements were carried out in ultrapure water and data obtained for the various APLs and their prodrugs are shown in Table 2.
# Pro-APLs Self-Assembly Properties
# Starting from a lipid film, compounds were […]
# [10] = system: A549 cells; assay: Cytotoxicity, MTT assay, A549; format: cell-based, human; details: A549, 24 h at 37°C
# Protocol: (§1) The cells were exposed for a 24-h period to increasing concentration of the pro-APLs, ranging from 500 nM to 1 mM, and cell viability was assessed using the MTT colorimetric assay (Mosmann, [1983]). For the three cell lines, viability decreased in a dose-dependent manner in response to APLs and pro-APLs (Supplementary Figures 2–4). Using the best-fit regression curve method, the IC50 value (concentration that provokes 50% inhibition of the cell growth) was calculated for each compound (Table 4). The three cell lines responded to the compounds with varying sensitivities. […] This is attributed to enzyme-mediated hydrolysis of the pro-APL compounds in the complemented culture medium or in the intracellular compartment, competing with pure pH-controlled chemical hydrolysis. According to its structure, a pro-APL may or not be a substrate for specific lipases and, thus, may or not be hydrolyzed into the parent cytotoxic compound. […]
# (§2) At confluency, cells were released […]
# (§3) Cells were seeded into 96-well plates (Becton-Dickinson) at the required density (vide supra) in 100 µL of serum containing culture medium. […]
# (§4) Mitochondrial activity measurements (MTT assay) was used to assess cytotoxicity of the compounds.
# (§5) Lipid samples were prepared from a lipid film (3.6 µmol of compound evaporated from an ethanolic solution) hydrated with aqueous glucose 5 % and vigorously vortexed for 20 s before serial dilution in aqueous glucose 5 %. For addition of lipid samples to cell culture, part of the culture medium in the culture plates prepared the day before (25 µL) was removed and replaced by lipid samples (25 µL). Negative control was obtained by adding glucose 5 % to the cells instead of lipoplexes.
# (§6) After a 24-h incubation period at 37 °C, culture supernatant was removed, cells were carefully washed with PBS and MTT (100 µL, 0.5 mg/mL) in complete culture medium was added. After a 1-h incubation period at 37 °C, the MTT sol ution was removed and DMSO (100 µL) was added to lyse cells and dissolve reduced MTT. Intensity of MTT reduction was then evaluated by measuring absorbance at 492 nm. Viability of cells treated with lipids or lipoplexes was expressed as the percentage of the absorbance measured in untreated cells. Value for each sample is the mean of triplicate determinations (± SD). IC50 values were determined within the 95 % confidence interval using nonlinear regression analysis with the GraphPad Prism software (GraphPad Software, San […]
# (§7) All data are representative of a triplicate determination and are presented as the mean ± SD.
# (§8) Statistical significance between treatments was assessed by one-way analysis of variance (ANOVA) followed by the Dunnett multiple comparison test, using the Kaleidagraph 4.5 software (Synergy Software, Reading, PA, USA). Data were considered as statistically significant for p value less than
# [11] = system: H292 cells; assay: Cytotoxicity, MTT assay, H292; format: cell-based, human
# Protocol: as §1, §2, §3, §4, §5, §6, §7, §8
# [12] = system: 16HBE cells; assay: Cytotoxicity, MTT assay, 16HBE; format: cell-based, human; details: 24 h at 37°C
# Protocol: as §1, §2, §3, §4, §5, §6, §7, §8
# [13] = Particle size and zeta potential of lipoplexes by DLS; format: physicochemical; details: lipoplexes with pCMV-Gluc, 25 °C, 5 % glucose, N/P 3, 1 molar equivalent of DOPE
# Source text: The capacity of the pro-APLs to interact electrostatically with nucleic acids and form lipoplexes was checked by standard agarose gel electrophoresis. […] The size (hydrodynamic diameter) and charge (zeta potential, ζ) of the lipoplexes prepared at an N/P ratio of 3 with one molar equivalent of dioleoyl-sn-glycero-3-phosphatidylethanolamine (DOPE), a lipid with fusogenic properties (Hui et al., [1996]; Zuhorn et al., [2005]), were investigated by DLS (Supplementary Table 1).
# as measured by DLS. Lipoplexes were prepared at 25 °C, in 5 % glucose, at a N/P ratio of 3 and with
# 1 molar equivalent of DOPE.
# (Gaillard et al., 2019). Data are the mean of three independent measurements (± SD).
# [14] = system: A549 cells; assay: Gene transfer efficiency, pCMV-Gluc luciferase reporter gene assay; format: cell-based, human
# Source text: The efficacy of the pro-APLs to mediate intracellular delivery of a plasmid DNA was examined in A549 human lung epithelial carcinoma cells using the pCMV-Gluc reporter gene encoding the luciferase of Gaussia princeps. This luciferase is secreted by cells and transgene expression can be conveniently assessed by standard bioluminescence measurements on aliquots of the cell culture supernatant, without need for prior cell lysis. Lipoplexes were formulated in glucose 5% at N/P ratios of 1, 3, and 5, with increasing amounts of DOPE as a helper lipid. They were deposited onto cells in the presence of 10% serum and luciferase activity was measured after 24 h (Figure 3). […] The influence of the nature of the pendant hydrophobic arm was also examined.
# To investigate the effect of serum on the gene delivery properties of the APL prodrugs, cells were treated with lipoplexes in the presence of an increasing concentration of serum (Figure 5). Two DNA doses were considered.
# Figure 5 Transfection efficiency of pro-APLs ME12 (A), PE12 (B), and EE12 (C) as a function of serum content. Pro-APL/DNA complexes were prepared at N/P 3, with 1 molar eq. of DOPE. A549 cells (6,000 cells/well) were seeded into 96-well plates in 100 μL of culture medium containing 10% serum. Twenty-four hours later, cell supernatant was replaced with culture medium complemented with increasing amounts of serum (from 10 to 75%) just before adding the lipoplexes (0.2 and 0.4 μg of DNA per well; light and deep purple bars, resp.). Control (light blue bar) refers to basal bioluminescence measured in untreated cells. […] Statistical significance vs. control. ***p < 0.001, **p < 0.01, *p < 0.05.
# [15] = system: sheep RBC; assay: Hemolytic activity, red blood cell leakage assay; details: 37°C
Compound,H120 (hydrolysis rate after a 120-h incubation period) ([1]; pH 4.5) [%],H120 (hydrolysis rate after a 120-h incubation period) ([1]; pH 7.4) [%],CMC (APLs) / CAC (pro-APLs) [2] [µM],IC50 [3] [µM],IC50 [4] [µM],IC50 [5] [µM],Particle size of lipoplexes [6],HA200 (hemolytic activity at 200 μM) ([7]; 24 h) [%],HA200 (hemolytic activity at 200 μM) ([7]; 1 h) [%],further results
CCCCCCCC/C=C\CCCCCCCCCCCCOP(=O)(OCCC[N+](C)(C)C)OC(C)OC(=O)CCCCCCCCCCC (stereo not drawn) [E E^′12],53,56,1.1 ± 0.7,192 ± 44,73 ± 15,63 ± 7,149 ± 15 nm,25.3 ± 2.6,–,t1/2 (time needed for 50% hydrolysis) ([1]; pH 4.5): 104 h; t1/2 (time needed for 50% hydrolysis) ([1]; pH 7.4): 96 h
CCCCCCCC/C=C\CCCCCCCCCCCCOP(=O)(OCCC[N+](C)(C)C)OCOC(=O)OCCCCCCCCCCCC (stereo not drawn) [EC12],1,8,1.2 ± 0.2,161 ± 21,167 ± 56,252 ± 112,117 ± 15 nm,9.6 ± 2.3,< 1,–
"CCCCCCCCCCCCCCCCOP(=O)(OCC[N+](C)(C)C)OCOC(=O)CCCCCCCCCCC.[Cl-] (stereo not drawn) [ME12, 2-((((Dodecanoyloxy)methoxy)(hexadecyloxy)phosphoryl)oxy)-N,N,N-trimethylethan-1-aminium chloride]",–,–,–,–,–,–,–,–,–,"H120 (hydrolysis rate after a 120-h incubation period) ([8]; pH 4.5): 3%; H120 (hydrolysis rate after a 120-h incubation period) ([8]; pH 7.4): 20%; CMC (APLs) / CAC (pro-APLs) [9]: 4.3 ± 2.5 µM; IC50 ([10]; Homo sapiens): 39 ± 7 µM; IC50 ([11]; Homo sapiens, NCI-H292, H292, 24 h at 37°C): 52 ± 28 µM; IC50 ([12]; Homo sapiens): 69 ± 26 µM; Particle size of lipoplexes [13]: 178 ± 8 nm; Serum content up to which significant transgene expression was mediated ([14]; A549, N/P 3, 1 eq. DOPE, DNA dose 0.2 μg/well): up to 50 % serum; Serum content up to which transfection activity extended ([14]; A549, N/P 3, 1 eq. DOPE, DNA dose 0.4 μg/well): up to 75 % serum; HA200 (hemolytic activity at 200 μM) ([15]; 1 h): 18.0 ± 1.2%; HA200 (hemolytic activity at 200 μM) ([15]; 24 h): 103.2 ± 3.6%"
CCCCCCCC/C=C\CCCCCCCCCCCCOP(=O)(OCCCCCCCCCCCC)OCCC[N+](C)(C)C (stereo not drawn) [Compound E12],0,0,0.7 ± 0.3,81 ± 7,124 ± 11,225 ± 31,194 ± 28 nm and 194 nm,12.0 ± 1.9,1.9 ± 0.7,"Hydrolytic stability after extended incubation ([1]; pH 7.4 and pH 4.5, 31 days): fully stable"
CCCCCCCC/C=C\CCCCCCCCCCCCOP(=O)(OCCC[N+](C)(C)C)OCOC(=O)OCCCCCCCC/C=C\CCCCCCCC (stereo not drawn) [EC18:1],0,10,0.8 ± 0.4,326 ± 36,154 ± 40,238 ± 58,611 ± 12 nm and 611 nm,20.9 ± 2.5,< 1,–
"3-((((((Dodecyloxy)carbonyl)oxy)ethoxy)(hexadecyloxy)phosphoryl)oxy)-N,N,N-trimethylpropan-1-aminium chloride [M C^′12]",–,–,–,–,–,–,–,–,–,"H120 (hydrolysis rate after a 120-h incubation period) ([8]; pH 4.5): 13%; H120 (hydrolysis rate after a 120-h incubation period) ([8]; pH 7.4): 14%; CMC (APLs) / CAC (pro-APLs) [9]: 2.0 ± 0.7 µM; IC50 [10]: 48 ± 15 µM; IC50 ([11]; H292, 24 h at 37°C): 146 ± 37 µM; IC50 [12]: 66 ± 27 µM; Particle size of lipoplexes [13]: 91 ± 3 nm; Transfection rate relative to MC12 ([14]; A549, pCMV-Gluc lipoplexes, 10% serum, 24 h): ca. 2 fold"
CCCCCCCC/C=C\CCCCCCCCCCCCOP(=O)(OCCC[N+](C)(C)C)OC(C)OC(=O)OCCCCCCCCCCCC (stereo not drawn) [E C^′12],5,6,0.9 ± 0.2,179 ± 63,161 ± 25,257 ± 81,92 ± 10 nm,7.3 ± 0.8,< 1,–
